Data reported in patent US20260200928A1, “THERAPEUTIC COMPOUNDS” (Sanofi, priority 2022, published 2026).

Target: T1, human IL-17A (Homo sapiens, UniProt Q16552)
T1 construct: purchased R&D Systems 7955-IL/CF
T1 sequence (Q16552 24-155): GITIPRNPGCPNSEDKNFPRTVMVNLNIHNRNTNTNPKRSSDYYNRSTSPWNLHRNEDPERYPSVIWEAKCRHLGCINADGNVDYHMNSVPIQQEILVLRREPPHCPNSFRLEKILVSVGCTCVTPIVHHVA
Assay: IL-17A AlphaLISA competition assay (block of IL-17A binding to its receptor IL-17RA)
Details: mean IC50 (n≥2), block of IL-17A binding to IL-17RA
Protocol: The ability of the compounds to block binding of IL-17A to its receptor, IL-17RA, was analysed in a competition assay using AlphaLISA technology (Perkin Elmer). The assay is a bead based AlphaLISA where the IL-17RA is captured on the acceptor bead via an Fc tag and IL-17A is captured on the streptavidin donor bead via a biotinylated anti-IL17A antibody.
Assay buffer was prepared by adding 0.05% Tween-20 (v/v) and 0.1% BSA to Phosphate Buffered Saline (PBS). The assay was carried out in 384-well white low volume plates (Perkin Elmer #6008359). 10 μL of a 7.5 nM stock of human recombinant IL-17A (R&D Systems 7955-IL/CF) diluted in assay buffer was dispensed into the assay plate and compounds or DMSO vehicle control were added in a volume of 75 nL using an acoustic dispenser (Beckman). The compounds were pre-incubated with the IL-17A for 30 min at room temperature prior to addition of 5 μL of a 5 nM stock of human recombinant IL-17RA/Fc chimera (R&D Systems 177-IR-100) diluted in assay buffer. The IL-17A was incubated with the receptor for a further 90 minutes at room temperature before addition of 5 μL of a mixture of anti-human Fc IgG acceptor beads (75 μg/mL, Perkin Elmer AL1030) and anti-IL-17A biotin conjugated antibody (5 nM, Abcam, #ab155575) in assay buffer. After a further 30 min incubation at room temperature, 5 μL of streptavidin donor beads (75 μg/mL, Perkin Elmer 6760002S) were added and the plate was incubated for 3 h in the dark.
The AlphaLisa signal was measured using the PheraSTAR plate reader (BMG). Data were analysed using GeneData Screener and fitted to a 4-parameter logistic equation. The IC50 values were calculated using the DMSO vehicle as the negative control and a high concentration (4 μM) of a reference IL-17A inhibitor as the positive control. All compounds were analysed at least in duplicate (n≥2).

| IC50 [µM] | Compound |
| --- | --- |
| 0.134 | COCC(c1ccnc(NC(=O)[C@@H](NC(=O)c2nonc2C)[C@H]2CC[C@H](C)CC2)c1)N1C[C@@H](C(F)(F)F)NC1=O (single isomer, unassigned) [Example 75] |
| 0.093 | COCC(c1ccnc(NC(=O)[C@@H](NC(=O)c2ccnn2C)C2CCC(C)CC2)c1)N1C[C@@H](C(F)(F)F)NC1=O (stereo partly drawn) [Example 76, N-((1S)-2-((4-(2-methoxy-1-((S)-2-oxo-4-(trifluoro-methyl)imidazolidin-1-yl)ethyl)pyridin-2-yl)amino)-1-((1r,4S)-4-methylcyclohexyl)-2-oxoethyl)-1-methyl-1H-pyrazole-5-carboxamide] |
| 0.09 | COC[C@H](c1ccnc(NC(=O)[C@@H](NC(=O)c2ccnn2C(C)C)C2CCC(F)(F)CC2)c1)N1C[C@@H](C(F)(F)F)NC1=O [Example 203, N-((S)-1-(4,4-difluorocyclohexyl)-2-((4-((S)-2-methoxy-1-((S)-2-oxo-4-(trifluoromethyl)imidazolidin-1-yl)ethyl)pyridin-2-yl)amino)-2-oxoethyl)-1-isopropyl-1H-pyrazole-5-carboxamide] |
| 1.47 | C[C@@H]1CN(Cc2ccnc(NC(=O)[C@@H](NC(=O)c3ccnn3C3CC3)C(C3CC3)C3CC3)c2)C(=O)N1 [Example 34, 1-cyclopropyl-N—((S)-1,1-dicyclopropyl-3-((4-(((R)-4-methyl-2-oxoimidazolidin-1-yl)methyl)pyridin-2-yl)amino)-3-oxopropan-2-yl)-1H-pyrazole-5-carboxamide] |
| 0.843 | CC(C)(C)OC(=O)NCC1(c2nocc2C(=O)N[C@H](C(=O)Nc2cc(CN3C[C@@H](C(F)(F)F)NC3=O)ccn2)C2CCC(F)(F)CC2)CC1 [Example 19, Tert-butyl ((1-(4-(((S)-1-(4,4-difluorocyclohexyl)-2-oxo-2-((4-(((S)-2-oxo-4-(trifluoromethyl)imidazolidin-1-yl)methyl)pyridin-2-yl)amino)ethyl)-carbamoyl)isoxazol-3-yl)cyclopropyl)methyl)carbamate] |
| 0.018 | CCC[C@H](c1ccnc(NC(=O)C(NC(=O)c2nocc2CC)C2CCC(F)(F)CC2)c1)N1C[C@@H](C(F)(F)F)NC1=O (stereo in doubt) [Example 158, N—((S)-1-(4,4-difluorocyclohexyl)-2-oxo-2-((4-((R)-1-((S)-2-oxo-4-(trifluoromethyl)imidazolidin-1-yl)butyl)pyridin-2-yl)amino)ethyl)-4-ethylisoxazole-3-carboxamide] |
| 1.96 | COCC(c1ccnc(NC(=O)[C@@H](NC(=O)c2ncccc2C)[C@H]2CC[C@H](C)CC2)c1)N1C[C@@H](C(F)(F)F)NC1=O (stereo partly drawn) [Example 98, N-((1S)-2-((4-(2-Methoxy-1-((S)-2-oxo-4-(trifluoromethyl)imidazolidin-1-yl)ethyl)pyridin-2-yl)amino)-1-((1r,4S)-4-methylcyclohexyl)-2-oxoethyl)-3-methyl-picolinamide] |
| 0.129 | COC[C@H](c1ccnc(NC(=O)[C@@H](NC(=O)Cc2ccc(OC)nc2)C2CCC(F)(F)CC2)c1)N1C[C@@H](C(F)(F)F)NC1=O [Example 204, (S)-2-(4,4-difluorocyclohexyl)-N-(4-((S)-2-methoxy-1-((S)-2-oxo-4-(trifluoromethyl)imidazolidin-1-yl)ethyl)pyridin-2-yl)-2-(2-(6-methoxypyridin-3-yl)acetamido)acetamide] |
| 0.047 | CCc1nocc1C(=O)N[C@H](C(=O)Nc1cc([C@@H](COC)N2C[C@@H](C(F)(F)F)NC2=O)ccn1)[C@H]1CCCC(F)(F)C1 (single isomer, unassigned) [Example 306] |
| 0.103 | COC[C@H](c1ccnc(NC(=O)C(NC(=O)c2nonc2OCC(F)(F)F)C2CCC(F)CC2)c1)N1C[C@@H](C(F)(F)F)NC1=O (single isomer, unassigned) [Example 282] |
| 0.138 | O=C(CCC(F)(F)F)NC(c1ccnc(NC(=O)[C@@H](NC(=O)c2nonc2C2CC2)C(C2CC2)C2CC2)c1)C1CC1 (single isomer, unassigned) [Example 39] |
| 0.025 | C[C@H]1CC[C@H]([C@H](NC(=O)c2nonc2C2CC2)C(=O)Nc2cc(CN3C[C@@H](C(F)(F)F)NC3=O)ccn2)CC1 [Example 2, 4-Cyclopropyl-N—((S)-1-((1r,4S)-4-methylcyclohexyl)-2-oxo-2-((4-(((S)-2-oxo-4-(trifluoromethyl)imidazolidin-1-yl)methyl)pyridin-2-yl)amino)ethyl)-1,2,5-oxadiazole-3-carboxamide] |
| 0.479 | C[C@@H]1CN(Cc2ccnc(NC(=O)[C@@H](NC(=O)OC(C)(C)C)[C@H]3CC[C@H](C)CC3)c2)C(=O)N1 [Example 30] |
| 0.085 | COC[C@H](c1ccnc(NC(=O)C(NC(=O)c2nonc2C)C2CCC(C)(F)CC2)c1)N1C[C@@H](C(F)(F)F)NC1=O (single isomer, unassigned) [Example 298] |
| 3.23 | COCC(NC(=O)CCC(F)(F)F)c1ccnc(NC(=O)[C@@H](NC(=O)c2ccnn2C)C2CCC(F)(F)CC2)c1 (single isomer, unassigned) [Example 143] |
| 0.117 | COC[C@H](c1ccnc(NC(=O)C(NC(=O)c2nocc2OCC(F)F)C2CCC(F)CC2)c1)N1C[C@@H](C(F)(F)F)NC1=O (single isomer, unassigned) [Example 281] |
| 8.4 | CC(C)(C)OC(=O)N[C@H](C(=O)Nc1cc(CN2C(=O)CNC2=O)ccn1)C1CCC(F)(F)CC1 [Example 28, Tert-butyl (S)-(1-(4,4-difluorocyclohexyl)-2-((4-((2,5-dioxoimidazolidin-1-yl)methyl)pyridin-2-yl)amino)-2-oxoethyl)carbamate] |
| 0.604 | CC(C)n1nccc1C(=O)N[C@H](C(=O)Nc1cc(O[C@H]2C[C@@H](C(F)(F)F)NC2=O)ccn1)[C@H]1CC[C@H](C)CC1 [Example 320, 1-isopropyl-N—((S)-1-((1r,4S)-4-methylcyclohexyl)-2-oxo-2-((4-(((3S,5S)-2-oxo-5-(trifluoromethyl)pyrrolidin-3-yl)oxy)pyridin-2-yl)amino)ethyl)-1H-pyrazole-5-carboxamide] |
| 0.011 | COCC(c1ccnc(NC(=O)[C@@H](NC(=O)c2conc2C(C)C)[C@H]2CC[C@H](C)CC2)c1)N1C[C@@H](C(F)(F)F)NC1=O (single isomer, unassigned) [Example 89] |
| 0.527 | CC(C)n1nccc1C(=O)N[C@H](C(=O)Nc1cc(C[C@@H]2C[C@@H](C(F)(F)F)NC2=O)ccn1)[C@H]1CC[C@H](C)CC1 [Example 154, 1-isopropyl-N—((S)-1-((1r,4S)-4-methylcyclohexyl)-2-oxo-2-((4-(((3R,5S)-2-oxo-5-(trifluoromethyl)pyrrolidin-3-yl)methyl)pyridin-2-yl)amino)ethyl)-1H-pyrazole-5-carboxamide] |
| 0.422 | Cn1nccc1C(=O)N[C@H](C(=O)Nc1cc(CN2C[C@@H](C(F)(F)F)NC2=O)ccn1)C1CCC(F)(F)CC1 [Example 9, N-((S)-1-(4,4-difluorocyclohexyl)-2-oxo-2-((4-(((S)-2-oxo-4-(trifluoromethyl)imidazolidin-1-yl)methyl)pyridin-2-yl)amino)ethyl)-1-methyl-1H-pyrazole-5-carboxamide] |
| 0.033 | COC[C@H](c1ccnc(NC(=O)[C@@H](NC(=O)c2nonc2C)C2CCC(F)(F)CC2)c1)N1C[C@@H](C(F)(F)F)NC1=O [Example 199, N-((S)-1-(4,4-difluorocyclohexyl)-2-((4-((S)-2-methoxy-1-((S)-2-oxo-4-(trifluoromethyl)imidazolidin-1-yl)ethyl)pyridin-2-yl)amino)-2-oxoethyl)-4-methyl-1,2,5-oxadiazole-3-carboxamide] |

| Compound | IC50 [µM] |
| --- | --- |
| N-((1S)-1-(4-chlorocyclohexyl)-2-((4-((S)-2-methoxy-1-((S)-2-oxo-4-(trifluoromethyl)imidazolidin-1-yl)ethyl)pyridin-2-yl)amino)-2-oxoethyl)-1-methyl-1H-pyrazole-5-carboxamide [Example 311] | 0.096 |
| 4-ethyl-N-(1-(4-fluorocyclohexyl)-2-((4-((S)-2-methoxy-1-((S)-2-oxo-4-(trifluoromethyl)imidazolidin-1-yl)ethyl)pyridin-2-yl)amino)-2-oxoethyl)-1,2,5-oxadiazole-3-carboxamide [Example 285] | 0.017 |
| 1-isopropyl-N-((1S)-2-((4-((S)-2-methoxy-1-((S)-2-oxo-4-(trifluoromethyl)imidazolidin-1-yl)ethyl)pyridin-2-yl)amino)-2-oxo-1-(4-(trifluoromethyl)cyclohexyl)ethyl)-1H-pyrazole-5-carboxamide [Example 303] | 0.046 |
